pIC50: −log10 of the molar value. In brackets after ≈: the same amount, converted by molar mass.
Key:
[1] = test system: A. baumannii (ATCC 17978); assay: MIC and MBC, microtiter plate technique; type: cell-based; conditions: ATCC17978, Acinetobacter baumannii; for MIC: 24 h, resazurin; for MBC: TTC
[2] = target: T1, mushroom tyrosinase (mTYR) (Agaricus bisporus, UniProt C7FF04); design: method as in earlier work; conditions: reported value; cited from earlier work
T1 construct: purchased Sigma-Aldrich (Poznan, Poland); host or cells: Agaricus bisporus (extracted natural enzyme)
T1 sequence (C7FF04 1-392 limits assumed): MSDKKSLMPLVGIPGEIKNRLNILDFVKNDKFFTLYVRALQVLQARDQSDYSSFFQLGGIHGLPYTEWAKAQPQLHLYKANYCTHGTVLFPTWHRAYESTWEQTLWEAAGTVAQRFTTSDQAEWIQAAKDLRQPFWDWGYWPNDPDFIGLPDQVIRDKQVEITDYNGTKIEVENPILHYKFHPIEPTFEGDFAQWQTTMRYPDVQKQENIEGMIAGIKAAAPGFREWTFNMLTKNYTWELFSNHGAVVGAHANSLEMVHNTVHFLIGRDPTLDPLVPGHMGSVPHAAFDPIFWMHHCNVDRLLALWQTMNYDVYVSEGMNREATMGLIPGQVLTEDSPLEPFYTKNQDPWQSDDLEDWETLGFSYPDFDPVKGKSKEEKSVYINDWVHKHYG

[3] = test system: P. aeruginosa (ATCC 15442); assay: MIC and MBC, microtiter plate technique; type: cell-based; conditions: ATCC15442, Pseudomonas aeruginosa; for MIC: 24 h, resazurin; for MBC: TTC
S. aureus (ATCC 23235) = assay: microbe, parasite or virus in culture; type: cell-based; conditions: Staphylococcus aureus; for MBC: ATCC23235; for MIC: ATCC23235, 24 h
[4] = target: T1, mushroom tyrosinase (mTYR); assay: Tyrosinase assay with L-DOPA as substrate (absorbance at 475 nm); type: biochemical; conditions: 100 µM compound
Excerpt: Tyrosinase (Tyr) extracted from Agaricus bisporus (mushroom tyrosinase, mTYR) is commonly used as a model enzyme for human Tyr due to its high purity, stability, and commercial availability. It is frequently used in the selection of TYR inhibitors. Following established literature protocols, L-tyrosine and L-DOPA, which serve as substrates for monophenol and diphenol oxidation, respectively, were used to assess the tyrosinase inhibitory activity of synthesized target compounds [21].
Tyrosinase (Tyr) activity was measured using L-DOPA as substrate and phosphate buffer solution (PBS) as blank control, following the method described by Min He et al. (2022) with an ultraviolet spectrophotometer (Carry-300, Agilent Life Sciences and Chemical Analysis, Santa Clara, CA, USA). […] Before the experiment, 2.9 mL of PBS and 0.1 mL of DMSO were used to account for the influence of the background solvent. The inhibitor solution (100 µL), substrate solution (2.8 mL), and Tyr solution (100 µL) were then added to a quartz colorimetric cuvette. After a one-minute mixing period, the absorption spectra of the mixture were continuously recorded at 475 nm using the UV spectrophotometer (Carry-300) for 5 min over a period of every 30 s. The tyrosinase inhibition rate was calculated as follows:Relative enzyme activity (%) = (A1 − A2)/A1 × 100
A1 = Absorbance of L-DOPA and inhibitor.
A2 = Absorbance of L-DOPA, inhibitor, and tyrosinase.

E. coli R4 (ATCC 39543) = assay: MIC and MBC, microtiter plate technique; type: cell-based; conditions: Escherichia coli; for MBC: ATCC39543; for MIC: ATCC39543, 24 h
E. coli K12 (ATCC 25404) = assay: MIC and MBC, microtiter plate technique; type: cell-based; conditions: Escherichia coli; for MBC: ATCC25404; for MIC: ATCC25404, 24 h
E. coli R3 (ATCC 11775) = assay: MIC and MBC, microtiter plate technique; type: cell-based; conditions: Escherichia coli; for MIC: ATCC11775, 24 h, resazurin; for MBC: ATCC11775, TTC
E. cloacae (ATCC 49141) = assay: MIC and MBC, microtiter plate technique; type: cell-based; conditions: ATCC49141, Enterobacter cloacae; for MIC: 24 h, resazurin; for MBC: TTC
E. coli R2 (ATCC 39544) = assay: MIC and MBC, microtiter plate technique; type: cell-based; conditions: Escherichia coli; for MBC: ATCC39544; for MIC: ATCC39544, 24 h
MTT cytotoxicity assay = type: cell-based; conditions: mouse, BALB/c3T3 mouse embryonic fibroblast cells; for viability at 24 h, 1 µM: read-out: cell viability
Protocol: Following the completion of MIC and MBC assays on the analyzed bacterial strains, and subsequent treatment with Fpg protein modified by peptidomimetics along with selected antibiotics, a further MTT assay was conducted to evaluate the cytotoxicity of the compounds employing the BALB/c3T3 mouse embryonic fibroblast cell line (Figure 10).
BALB/c3T3 mouse embryonic fibroblast cells were exposed to peptidomimetics across concentrations ranging from 0.5 µM to 3.5 µM and incubated for a duration of 24 h. […] The highest concentrations (2.5 µM and 3.5 µM) inhibited cell viability, which was reduced to 20.2% and 1.0%, respectively (Figure 10 and Figure S40 in the Supplementary Materials).
The cytotoxic effects of aldehyde 1 and peptidomimetics 5a–r on BALB/c3T3 mouse fibroblast cells were assessed utilizing the MTT assay following a 24 h incubation period across five different concentrations (0.5, 1.0, 1.5, 2.5, and 3.5 µM). The MTT assay is predicated upon the capacity of mitochondrial dehydrogenase enzymes to convert the water-soluble tetrazolium salt, 3-([…])-2,5-diphenyltetrazolium bromide (MTT), into an insoluble formazan product, manifesting as dark blue crystals. These formazan crystals are then dissolved in DMSO or isopropanol, forming a colored solution whose intensity is measured spectrophotometrically within the wavelength range of 492–570 nm. The amount of MTT reduced corresponds to the oxidative activity of the mitochondria, which is directly proportional to the number of metabolically active cells in the population under defined experimental conditions. The MTT assay can also be used to assess cell viability in non-dividing metabolically active cells. It is one of the most widely used methods to assess cytotoxic activity and is recommended by international standards organizations as a reference method.

[5] = test system: E. coli, A. baumannii, P. aeruginosa, E. cloacae, and S. aureus; assay: MIC and MBC over all model bacterial strains (summary statements); type: cell-based; conditions: Gram-positive and Gram-negative bacteria

Row | Structure (SMILES) | MIC [1] [µM] | MBC [1] [µM] | MIC [3] [µM] | MBC [3] [µM] | MBC (S. aureus (ATCC 23235)) [µM] | MIC (S. aureus (ATCC 23235)) [µM] | inhibition at 100 µM [4] [%] | MBC (E. coli R4 (ATCC 39543)) [µM] | MIC (E. coli R4 (ATCC 39543)) [µM] | MBC (E. coli K12 (ATCC 25404)) [µM] | MIC (E. coli K12 (ATCC 25404)) [µM] | MIC (E. coli R3 (ATCC 11775)) [µM] | MBC (E. coli R3 (ATCC 11775)) [µM] | MIC (E. cloacae (ATCC 49141)) [µM] | MBC (E. cloacae (ATCC 49141)) [µM] | MBC (E. coli R2 (ATCC 39544)) [µM] | MIC (E. coli R2 (ATCC 39544)) [µM] | viability at 24 h, 1 µM (MTT cytotoxicity assay) [%] | also measured
1 | O=Cc1ccc(O)c(O)c1 [Compound 1, 3,4-dihydroxybenzaldehyde, reference compound] | 2.82 (≈ 0.39 µg/mL) | 3.55 (≈ 0.49 µg/mL) | 3 (≈ 0.414 µg/mL) | 3.33 (≈ 0.46 µg/mL) | 3.33 (≈ 0.46 µg/mL) | 2.67 (≈ 0.369 µg/mL) | 15 | 3.58 (≈ 0.494 µg/mL) | 3.57 (≈ 0.493 µg/mL) | 1.82 (≈ 0.251 µg/mL) | 1.39 (≈ 0.192 µg/mL) | 2.85 (≈ 0.394 µg/mL) | 2.96 (≈ 0.409 µg/mL) | 2.75 (≈ 0.38 µg/mL) | 3.04 (≈ 0.42 µg/mL) | 2.6 (≈ 0.359 µg/mL) | 2.46 (≈ 0.34 µg/mL) |  | pIC50 [2]: 3.60
2 | COc1ccc(CN(C(=O)Cc2ccccc2)C(C(=O)NCc2ccccc2)c2ccc(O)c(O)c2)cc1 (centres unmarked) [Compound 5a, N-benzyl-2-(3,4-dihydroxyphenyl)-2-(N-(4-methoxybenzyl)-2-phenylacetamido)-acetamide] | 0.63 (≈ 0.322 µg/mL) | 0.68 (≈ 0.347 µg/mL) | 0.62 (≈ 0.317 µg/mL) | 0.66 (≈ 0.337 µg/mL) | 0.68 (≈ 0.347 µg/mL) | 0.65 (≈ 0.332 µg/mL) | < 10 | 1.15 (≈ 0.587 µg/mL) | 0.88 (≈ 0.449 µg/mL) | 0.32 (≈ 0.163 µg/mL) | 0.3 (≈ 0.153 µg/mL) | 0.66 (≈ 0.337 µg/mL) | 0.84 (≈ 0.429 µg/mL) | 0.58 (≈ 0.296 µg/mL) | 0.62 (≈ 0.317 µg/mL) | 0.62 (≈ 0.317 µg/mL) | 0.59 (≈ 0.301 µg/mL) |  | IC50 at 24 h (MTT cytotoxicity assay; 24 h of incubation, (±0.14), read-out: half maximum inhibitory concentration (IC50), cytotoxicity): 1.61 µM; antibacterial spectrum [5]: broad-spectrum activity
3 | COc1ccc(CN(C(=O)Cc2ccccc2)C(C(=O)NCc2ccc(F)cc2)c2ccc(O)c(O)c2)cc1 (centres unmarked) [Compound 5c, 2-(3,4-dihydroxyphenyl)-N-(4-fluorobenzyl)-2-(N-(4-methoxybenzyl)-2-phenylacetamido)-acetamide] | 0.84 (≈ 0.444 µg/mL) | 0.94 (≈ 0.497 µg/mL) | 1.04 (≈ 0.55 µg/mL) | 1.09 (≈ 0.576 µg/mL) | 1 (≈ 0.529 µg/mL) | 0.96 (≈ 0.507 µg/mL) | < 10 | 2.36 (≈ 1.25 µg/mL) | 1.98 (≈ 1.05 µg/mL) | 0.66 (≈ 0.349 µg/mL) | 0.45 (≈ 0.238 µg/mL) | 1.61 (≈ 0.851 µg/mL) | 1.79 (≈ 0.946 µg/mL) | 1.08 (≈ 0.571 µg/mL) | 1.11 (≈ 0.587 µg/mL) | 1.04 (≈ 0.55 µg/mL) | 1 (≈ 0.529 µg/mL) | 60.2 | 
4 | CCCCN(C(C)=O)C(C(=O)NCc1ccccc1)c1ccc(O)c(O)c1 (centres unmarked) [Compound 5p, N-benzyl-2-(N-butylacetamido)-2-(3,4-dihydroxyphenyl)acetamide] | 0.87 (≈ 0.322 µg/mL) | 0.9 (≈ 0.333 µg/mL) | 0.88 (≈ 0.326 µg/mL) | 0.94 (≈ 0.348 µg/mL) | 0.94 (≈ 0.348 µg/mL) | 0.87 (≈ 0.322 µg/mL) | > 10 | 1.7 (≈ 0.63 µg/mL) | 1.58 (≈ 0.585 µg/mL) | 0.89 (≈ 0.33 µg/mL) | 0.33 (≈ 0.122 µg/mL) | 1.27 (≈ 0.47 µg/mL) | 1.64 (≈ 0.608 µg/mL) | 0.86 (≈ 0.319 µg/mL) | 0.94 (≈ 0.348 µg/mL) | 1.51 (≈ 0.559 µg/mL) | 0.84 (≈ 0.311 µg/mL) |  | 
5 | CCCCN(C(C)=O)C(C(=O)NCc1ccc(OC)cc1)c1ccc(O)c(O)c1 (centres unmarked) [Compound 5q, 2-(N-butylacetamido)-2-(3,4-dihydroxyphenyl)-N-(4-methoxybenzyl)acetamide] | 0.81 (≈ 0.324 µg/mL) | 0.85 (≈ 0.34 µg/mL) | 0.83 (≈ 0.332 µg/mL) | 0.87 (≈ 0.348 µg/mL) | 0.91 (≈ 0.364 µg/mL) | 0.81 (≈ 0.324 µg/mL) | < 10 | 1.58 (≈ 0.633 µg/mL) | 1.49 (≈ 0.597 µg/mL) | 0.79 (≈ 0.316 µg/mL) | 0.43 (≈ 0.172 µg/mL) | 1.13 (≈ 0.453 µg/mL) | 1.52 (≈ 0.609 µg/mL) | 0.84 (≈ 0.336 µg/mL) | 0.85 (≈ 0.34 µg/mL) | 1.44 (≈ 0.577 µg/mL) | 0.82 (≈ 0.328 µg/mL) | 86.9 | 
6 | CCCCN(C(C)=O)C(C(=O)NCc1ccc(F)cc1)c1ccc(O)c(O)c1 (centres unmarked) [Compound 5r, 2-(N-butylacetamido)-2-(3,4-dihydroxyphenyl)-N-(4-fluorobenzyl)acetamide] | 1.26 (≈ 0.489 µg/mL) | 1.31 (≈ 0.509 µg/mL) | 1.64 (≈ 0.637 µg/mL) | 1.49 (≈ 0.579 µg/mL) | 1.54 (≈ 0.598 µg/mL) | 1.51 (≈ 0.587 µg/mL) | < 10 | 3.5 (≈ 1.36 µg/mL) | 3.13 (≈ 1.22 µg/mL) | 0.94 (≈ 0.365 µg/mL) | 0.74 (≈ 0.287 µg/mL) | 2.56 (≈ 0.994 µg/mL) | 3.14 (≈ 1.22 µg/mL) | 1.67 (≈ 0.649 µg/mL) | 1.5 (≈ 0.583 µg/mL) | 1.51 (≈ 0.587 µg/mL) | 1.5 (≈ 0.583 µg/mL) |  | 

— PMC11855086, “Synthesis, Antimicrobial Activity, and Tyrosinase Inhibition by Multifunctional 3,4-Dihydroxy-Phenyl Peptidomimetics” (International Journal of Molecular Sciences, 2025)
